In PMC12186255, “Discovery and Characterization of Small Molecule Inhibitors Targeting Exonuclease 1 for Homologous Recombination-Deficient Cancer Therapy” (ACS Chemical Biology, 2025):
“Also recorded” adds a separate entry of the source.

Columns and labels:
OVCAR-8 = experiment: Cell line drug profiling, CellTiter Glo; format: cell-based; settings: Homo sapiens; OVCAR-8, Ovarian, 72 h
How it was run: (§1)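 Representative compounds from seven EXO1i scaffolds were titrated on cells from 50 μM downward in 3-fold steps, with duplicates, and luminescent viability (CellTiter Glo) was recorded after three days.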

U251 = experiment: Cell line drug profiling, CellTiter Glo; format: cell-based; settings: Homo sapiens, U-251; U251, Central Nervous System, 72 h
How it was run: as §1

UACC-257 = experiment: Cell line drug profiling, CellTiter Glo; format: cell-based; settings: Homo sapiens; UACC-257, Melanoma, 72 h
How it was run: as §1

DU145 = experiment: Cell line drug profiling, CellTiter Glo; format: cell-based; settings: Homo sapiens, DU-145; DU145, Prostate, 72 h
How it was run: as §1

PC3 = experiment: Cell line drug profiling, CellTiter Glo; format: cell-based; settings: Homo sapiens, PC-3; PC3, Prostate, 72 h
How it was run: as §1

IGR-OV1 = experiment: Cell line drug profiling, CellTiter Glo; format: cell-based; settings: Homo sapiens, IGROV-1; IGR-OV1, Ovarian, 72 h
How it was run: as §1

NCI/ADR-RES = experiment: Cell line drug profiling, CellTiter Glo; format: cell-based; settings: Homo sapiens, Ovarian, 72 h
How it was run: as §1

SNB-19 = experiment: Cell line drug profiling, CellTiter Glo; format: cell-based; settings: Homo sapiens; SNB-19, Central Nervous System, 72 h
How it was run: as §1

OVCAR-5 = experiment: Cell line drug profiling, CellTiter Glo; format: cell-based; settings: Homo sapiens; OVCAR-5, Ovarian, 72 h
How it was run: as §1

H23 = experiment: Cell line drug profiling, CellTiter Glo; format: cell-based; settings: Homo sapiens, NCI-H23; H23, Lung, 72 h
How it was run: as §1

EXO1 E89A = molecular target: T1, EXO1 E89A (Homo sapiens, UniProt Q9UQ84, E89A); experiment: In vitro exonuclease activity of mutant with inhibitors; format: biochemical; settings: EXO1 25 nM, DNA substrate 250 nM
T1 construct: The N-terminal domain of human EXO1 (hEXO1) (residues 1–345) was cloned into the pET28b vector; made in house; host or cells: E. coli BL21(DE3) and Rosetta 2(DE3)
Protocol: (§2) Simultaneously, we tested the effect of each point mutation on the in vitro exonuclease activity. Most mutations in site 1 result in some loss of enzymatic activity compared to WT EXO1 (Figure S13; WT:Figure S13a), particularly K85A and D225A (Figure S13b,f). […] However, at concentrations of 20 and 40 μM, the mutants (K85A and R92A) behaved more like WT (Figure b).
(§3) In both panels a and b, DMSO without inhibitors was used as a control, and its relative binding activity was set equal to 1.0. The EXO1 enzyme concentration was 25 nM, and the DNA substrate concentration was 250 nM. The values shown are the mean ± S.D. of three independent experiments.
(§4) The N-terminal domain of human EXO1 (hEXO1) (residues 1–345) was cloned into the pET28b vector. The following mutations were introduced via site-directed mutagenesis based on the findings of molecular docking analysis: K85A, E89A, R92A, I125A, D225A, K292A, and K294A (oligonucleotide primers listed in Table S1) following the established protocol.

EXO1 I125A = molecular target: T2, EXO1 I125A (Homo sapiens, UniProt Q9UQ84, I125A); experiment: as above; format: biochemical; settings: EXO1 25 nM, DNA substrate 250 nM
T2 construct: The N-terminal domain of human EXO1 (hEXO1) (residues 1–345) was cloned into the pET28b vector; made in house; host or cells: E. coli BL21(DE3) and Rosetta 2(DE3)
Protocol: as §2, §3, §4

EXO1 D225A = molecular target: T3, EXO1 D225A (Homo sapiens, UniProt Q9UQ84, D225A); experiment: as above; format: biochemical; settings: EXO1 25 nM, DNA substrate 250 nM; C200 0-5 μM
T3 construct: The N-terminal domain of human EXO1 (hEXO1) (residues 1–345) was cloned into the pET28b vector; made in house; host or cells: E. coli BL21(DE3) and Rosetta 2(DE3)
Protocol: as §2, §3, §4

[1] = test system: MDA-MB-436 (BRCA1+) tumors; experiment: In vivo tumor growth assay, xenograft; set-up: species or system mouse; settings: p = 0.64
Protocol: (§5) The tumor growth rate of human breast cancer cells with or without treatment with EXO1i was evaluated by using a xenograft breast cancer mouse model. […] The tumor volume in each mouse was measured twice a week and calculated using the formula (length × width × width)/2 (mm^3). When the tumors reached a volume of 1000 mm^3, the mice were euthanized. Animal studies were conducted in accordance with an approved protocol adhering to the IACUC policies and procedures of the City of Hope.

[2] = test system: MDA-MB-436 (BRCA1−) tumors; experiment: In vivo tumor growth assay, xenograft; set-up: species or system mouse; settings: p = 0.018
Protocol: as §5

[3] = test system: MDA-MB-436 (BRCA1−) and MDA-MB-436 (BRCA1+) cells; experiment: In vitro cell survival assay (cell counting); format: cell-based, human; settings: 1-50 μM F684, 5 days
Protocol: For this assay, 10,000 cells were seeded per well in a 24-well plate and incubated in a complete culture medium containing DMSO or the EXO1i of interest at 37 °C with 5% CO2. The medium was refreshed every 3 to 4 days by replacing it with a fresh medium containing DMSO or EXO1i. After 5 days, the cells were trypsinized, and the survival curve was generated by manual cell counting.

[4] = test system: MDA-MB-436 (BRCA1−) and MDA-MB-436 (BRCA1+) cells; experiment: Annexin V apoptosis assay; format: cell-based, human; settings: 5 days of treatment
Protocol: After 24 h of incubation, testing compounds were added to cells at final concentrations of 50, 25, 12, and 5 μM using the Echo Liquid Handler (Beckman). Subsequently, 10 μL of the NIR-labeled Annexin V apoptosis reagent (Cat. #4768, Sartorius, Germany) was added to each well at a 1:200 final dilution. The plates were then transferred to the Incucyte Live-Cell Analysis System for real-time apoptosis monitoring over a 5 day period. Imaging was conducted using a 10× objective with phase-contrast and near-infrared (NIR) fluorescent channels, capturing scans every 2 h. Image analysis was performed with the Incucyte software, and the total NIR fluorescence intensity was quantified to evaluate the apoptosis.

[5] = 8.5 mg/kg daily intraperitoneal

T3 sequence (Q9UQ84 1-345 D225A): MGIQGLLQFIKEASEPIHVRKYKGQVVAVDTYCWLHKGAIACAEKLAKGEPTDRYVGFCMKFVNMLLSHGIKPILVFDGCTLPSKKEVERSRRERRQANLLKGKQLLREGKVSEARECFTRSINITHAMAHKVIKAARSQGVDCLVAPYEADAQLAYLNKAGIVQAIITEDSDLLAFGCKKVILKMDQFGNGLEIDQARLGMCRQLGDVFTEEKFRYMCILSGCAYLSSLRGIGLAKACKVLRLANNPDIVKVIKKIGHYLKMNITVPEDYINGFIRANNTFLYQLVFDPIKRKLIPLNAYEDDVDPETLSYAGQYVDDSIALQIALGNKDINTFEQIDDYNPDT
T2 sequence (Q9UQ84 1-345 I125A): as the sequence (Q9UQ84 1-345 D225A) above, with I125A, A225D counted along it
T1 sequence (Q9UQ84 1-345 E89A): as the sequence (Q9UQ84 1-345 D225A) above, with E89A, A225D counted along it

| SMILES | IC50 (OVCAR-8) | IC50 (U251) | IC50 (UACC-257) | IC50 (DU145) | IC50 (PC3) | IC50 (IGR-OV1) | IC50 (NCI/ADR-RES) | IC50 (SNB-19) | IC50 (OVCAR-5) | IC50 (H23) | inhibitory activity against EXO1 E89A mutant vs WT (EXO1 E89A) | inhibitory activity against EXO1 I125A mutant vs WT (EXO1 I125A) | inhibitory activity against EXO1 D225A mutant vs WT (EXO1 D225A) | average growth rate of BRCA1+ tumors ([1]; 8.5 mg/kg body weight/day intraperitoneal, NSG mice, vehicle 16.6) | tumor volumes compared with vehicle, BRCA1+ tumors [1, 5] | average growth rate of BRCA1– tumors ([2]; 8.5 mg/kg body weight/day intraperitoneal, NSG mice, vehicle […]) | tumor volumes compared with vehicle, BRCA1- mouse models [2, 5] | cell killing (survival), BRCA1– vs BRCA1+ cells [3] | apoptosis (Annexin V fluorescence intensity), BRCA1− vs BRCA1+ [4] |
| --- | --- | --- | --- | --- | --- | --- | --- | --- | --- | --- | --- | --- | --- | --- | --- | --- | --- | --- | --- |
| COC(=O)c1nc(-c2ccc(OC)cc2)nc(O)c1O [C200] | > 50 µM | > 50 µM | > 50 µM | 49.4 µM | > 50 µM | > 50 µM | > 50 µM | > 50 µM | > 50 µM | > 50 µM | did not have a significant | did not have a significant | partially lost its inhibitory effect; also recorded: abolished |  |  |  |  |  |  |
| Cc1cccc(N2CCN(c3ccc(NS(=O)(=O)c4ccccc4)c(C(=O)O)c3)CC2)c1C [F684] |  |  |  |  |  |  |  |  |  |  |  |  |  | 15.1 %/day | no effect | 11.3 %/day | significantly reduced tumor volumes | more effective in killing BRCA1– cells compared to BRCA1+ cells | substantially stronger killing effect in a BRCA1– context |
